Two compounds from patent publication US11685729B2, “C5a receptor modulators” (IDORSIA PHARMACEUTICALS LTD., priority 2018, dated 2023) can be followed below.

This experiment deals with C5AR1 (Homo sapiens (Human), UniProt P21730). Nature of the experiment: In vitro assay: PathHunter beta-arrestin antagonist assay in CHO-K1 C5AR1 beta-arrestin cell line, stimulated with C5a agonist. The note with it: read-out: C5aR IC50; CHO-K1 C5AR1 beta-arrestin cell line; 1-10 nM C5a agonist; geometric mean values.
Chain of C5AR1 (P21730 whole entry): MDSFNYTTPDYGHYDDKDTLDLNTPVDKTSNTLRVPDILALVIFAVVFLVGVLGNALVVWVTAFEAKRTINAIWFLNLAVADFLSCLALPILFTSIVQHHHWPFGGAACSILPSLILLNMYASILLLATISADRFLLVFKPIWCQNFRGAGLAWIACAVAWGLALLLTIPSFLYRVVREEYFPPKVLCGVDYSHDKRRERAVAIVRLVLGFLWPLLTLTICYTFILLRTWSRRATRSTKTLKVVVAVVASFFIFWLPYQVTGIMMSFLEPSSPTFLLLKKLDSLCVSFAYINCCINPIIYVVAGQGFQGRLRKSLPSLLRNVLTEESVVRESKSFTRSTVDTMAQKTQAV

Structures are written as SMILES. pIC50: −log10 of the molar value.

Method: 5 μl Antagonist at 6-fold end concentration or DMSO control is added to assay medium and subsequently 5 μl 1-10 nM C5a agonist at 6 fold end concentration. Cells are centrifuged for 1 min at 1000 rpm and incubated for 1.5 hour in at 37° C. Plates are equilibrated at room temperature for several minutes before adding 12 μI/well Detection Reagent (PathHunter Detection Kit, DiscoverX, Cat #93-0001). Plates are centrifuged for 1 min at 1000 rpm and incubated for 45 minutes at RT before being measured on a Fluostar Optima, BMG Labtech. IC50 values are calculated from a serial dilution range of antagonist using inhouse software and given in nmol/l.
The calculated IC50 values may fluctuate depending on the daily cellular assay performance. […] Average IC50 values from several measurements are given as geometric mean values.

As for `Cc1cccc(F)c1N1CC(N2Cc3ccccc3N(Cc3ccccc3C(F)(F)F)C2=O)C1` [Example 81, 3-[1-(2-Fluoro-6-methyl-phenyl)-azetidin-3-yl]-1-(2-trifluoromethyl-benzyl)-3,4-dihydro-1H-quinazolin-2-one], the pIC50 is 5.89. In the case of `Cc1nc(C(F)(F)F)c(CN2C(=O)N(C3CCN(c4c(C)cccc4F)CC3)Cc3ccccc32)s1` [Example 83, 3-[1-(2-Fluoro-6-methyl-phenyl)-piperidin-4-yl]-1-(2-methyl-4-trifluoromethyl-thiazol-5-ylmethyl)-3,4-dihydro-1H-quinazolin-2-one] it was 5.88.

One may read the pIC50 as the negative decadic logarithm of the IC50, by convention in mol/L.
